Measurements: patent US7569690B2, “Process for producing oxycarbonyl-substituted piperazine derivative” (Toray Fine Chemicals Co., Ltd., priority 2002, dated 2009)

Tests used:
[1] = Thermal stability of the oxycarbonyl-substituted piperazine derivative (standing at temperature, liquid chromatography purity); assay type: physicochemical
Protocol: It was confirmed that the stability of the compound is greatly affected by the temperature and the heating time period.
It was noticed that when, for example, 1-benzyloxycarbonyl-3-methylpiperazine with a purity of 99.3 liquid chromatography area % was allowed to stand at 120° C., 160° C. or 200° C. for 12 hours, their liquid chromatography purity declined to 99.0 liquid chromatography area %, 95.6 liquid chromatography area % and 59.7 liquid chromatography area % respectively, and that the liquid chromatography purity of 1-benzyl-4-benzyloxycarbonyl-2-methylpiperazine corresponding to the compound represented by the general formula (7) rose to 0.2 liquid chromatography area %, 3.2 liquid chromatography area % and 30.7 liquid chromatography area % respectively.
Furthermore, when the compound was allowed to stand at 160° C. for 1 hour, the purity was 98.8 liquid chromatography area %, and it can be seen that the decomposition rate was small compared with the case of 12 hours.
For measuring the contents of the impurities contained in the oxycarbonyl-substituted piperazine derivative represented by the general formula (2), liquid chromatography is used. The analytical column for liquid chromatography used for analysis is a column using an octadecyl -based composition as a packing material. Particularly the use of Capcellpak C18, 120 angstroms, 5 μm, 4.6 mm×150 mm (Shiseido) is desirable.
The mobile phase is 5 mM sodium dodecyl sulfate (hereinafter abbreviated as SDS) aqueous solution (pH 2.5, phosphoric acid)/acetonitrile, and a gradient method for changing the composition with the lapse of time is used for analysis. That is, the acetonitrile content in the mobile phase is kept at 31 vol % from the start of analysis to 15 minutes later, and the acetonitrile content is then increased at a constant rate up to 45 vol %, taking 10 minutes, being kept at 45 vol % from 25 minutes later to 40 minutes later. The detector used is a UV measuring instrument, and the detection wavelength is 210 nm. The detection wavelength is very important, and if the detection wavelength is changed, the analyzed value may change. The reason is that the maximum wavelength of UV absorption changes depending on the compound. In this system, it is desirable that the wavelength is from 210 to 230 nm at which the ratios of the absorption sensitivity of the compound represented by the general formula (2) to the absorption sensitivities the compounds represented by the general formulae (5) to (8) are from 0.6 to 1.5. Analysis is made at a column oven temperature of 40° C. In the case where analysis is made under the above-mentioned analytical conditions, the retention times of 1-benzyloxycarbonyl-3-methylpiperazine and the impurities corresponding to the general formulae (5) to (8), i.e., 1,4-bis(carbobenzyloxy)-2-methylpiperazine, 1-benzyl-3-methylpiperazine, 4-benzyloxycarbonyl-1-benzyl-2-methylpiperazine and benzyl alcohol were 23.1 minutes, 31.0 minutes, 31.0 minutes, 30.0 minutes and 2.7 minutes respectively. The values of their area percentages can be used to obtain the impurity contents.

[2] = cited from earlier work

Row | SMILES | Liquid chromatography purity of decomposition product 1-benzyl-4-benzyloxycarbonyl-2-methylpiperazine after standing ([1]; 120° C. for 12 hours) | Liquid chromatography purity after standing ([1]; 120° C. for 12 hours, starting purity 99.3 liquid chromatography area %) | Liquid chromatography purity after standing ([1]; 160° C. for 1 hour) | Liquid chromatography purity of decomposition product 1-benzyl-4-benzyloxycarbonyl-2-methylpiperazine after standing ([1]; 160° C. for 12 hours) | Liquid chromatography purity after standing ([1]; 160° C. for 12 hours, starting purity 99.3 liquid chromatography area %) | Liquid chromatography purity of decomposition product 1-benzyl-4-benzyloxycarbonyl-2-methylpiperazine after standing ([1]; 200° C. for 12 hours) | Liquid chromatography purity after standing ([1]; 200° C. for 12 hours, starting purity 99.3 liquid chromatography area %) | pKa [2]
1 | CC1CN(C(=O)OCc2ccccc2)CCN1 (stereo not drawn) [1-benzyloxycarbonyl-3-methylpiperazine] | 0.2 liquid chromatography area % | 99.0 liquid chromatography area % | 98.8 liquid chromatography area % | 3.2 liquid chromatography area % | 95.6 liquid chromatography area % | 30.7 liquid chromatography area % | 59.7 liquid chromatography area % | –
2 | COc1ccccn1 [2-methoxypyridine] | – | – | – | – | – | – | – | 6.62
3 | c1cn[nH]c1 [pyrazole] | – | – | – | – | – | – | – | 2.5
